Patent US9499554B2, “Anti-influenza compositions and methods” (priority 2013, dated 2016)
Converted amounts (≈) assume the structure as drawn. Read-outs that look alike come from different tables or passages of the source.

Assays:
[1] = system: Influenza A H5N1 VN/1203/2004 Hybrid (on H1N1 backbone); assay: microbe, parasite or virus in culture; assay type: cell-based; details: Influenza A virus
[2] = system: Influenza A H5N1 VN/1203/2004 Hybrid (on H1N1 backbone); assay: microbe, parasite or virus in culture; assay type: cell-based; details: Influenza A virus, read-out: EC50, Visual CPE Assay

Nc1ncnc2c([C@@H]3N[C@H](CO)[C@@H](O)[C@H]3O)c[nH]c12 [compound 1, (2S,3S,4R,5R)-2-(4-Amino-5H-pyrrolo[3,2-d]pyrimidin-7-yl)-5-(hydroxymethyl)pyrrolidine-3,4-diol]
EC50 ([1]; MDCK, read-out: EC50, antiviral activity in MDCK cells): 0.99 µg/mL (≈ 3.73 µM)
EC50 ([1]; read-out: EC50, Neutral Red Uptake Assay): 0.99 µg/mL (≈ 3.73 µM)
EC50 [2]: 0.63 µg/mL (≈ 2.37 µM)
